Assay type in all cases: functional, cell-based
In experiment [1] the test system is Plasmodium falciparum. Put plainly: Anti-plasmodial activity against chloroquine-sensitive Plasmodium falciparum 3D7 infected in human erythrocytes after 50 hrs by SYBR green dye based fluorescence assay. The following applies: 3D7, 50 h.
The test system of experiment [2] is SiHa. The experiment can be described thus: Antiproliferative activity against human SiHa cells after 48 hrs by SRB assay.
Experiment [3] has as its system PANC-1. The experiment can be described thus: Antiproliferative activity against human PANC1 cells after 48 hrs by SRB assay. The following applies: PANC-1, 48 h.
Experiment [4] relates to MDA-MB-231. The experiment can be described thus: Antiproliferative activity against human MDA-MB-231 cells after 48 hrs by SRB assay. The following applies: MDA-MB-231, 48 h.
Experiment [5] relates to IMR-32. The experiment can be described thus: Antiproliferative activity against human IMR32 cells after 48 hrs by SRB assay. As to conditions: IMR-32, 48 h.

Each structure is given as a SMILES string. Where only a bound is given, the exact number is not on record here.

In the case of `CC(=O)O[C@@H]1C[C@H]2C(C)(C)C(O)C=C[C@]2(C)[C@H]2CC[C@@]3(C)[C@H](c4ccoc4)C(O)[C@H]4O[C@]43[C@@]21C` (some centres undefined), the IC50 in experiment [1] is 35.5 µM; in experiment [2] it was greater than 100 µM; in experiment [3] it was greater than 100 µM; in experiment [4], greater than 100 µM; in experiment [5], greater than 100 µM.
Take `CC(=O)O[C@@H]1C[C@H]2C(C)(C)C(=O)C=C[C@]2(C)[C@H]2CC[C@@]3(C)[C@H](c4ccoc4)/C(=N\OC(=O)c4cccc([N+](=O)[O-])c4)[C@H]4O[C@]43[C@@]21C`: the IC50 is 28.6 µM in experiment [1]; greater than 100 µM in experiment [2]; greater than 100 µM in experiment [3]; greater than 100 µM in experiment [4]; greater than 100 µM in experiment [5].
In the case of `CC(=O)O[C@@H]1C[C@H]2C(C)(C)C(=O)C=C[C@]2(C)[C@H]2CC[C@@]3(C)[C@H](c4ccoc4)/C(=N\OCc4cn(-c5ccc(C)cc5)nn4)[C@H]4O[C@]43[C@@]21C`, the IC50 is 4.2 µM in experiment [1]; greater than 100 µM in experiment [2]; greater than 100 µM in experiment [3]; greater than 100 µM in experiment [4]; greater than 100 µM in experiment [5].
For `COc1ccc(C[C@@H](O)c2cc(OC)c(OC)c(OC)c2)cc1O` [COMBRETASTATIN], the IC50 in experiment [2] amounted to 2 µM; in experiment [3], 3.5 µM; in experiment [4], 2.3 µM; in experiment [5], 2.4 µM.
On to `CCC(=O)Nc1ccc(-n2cc(CO/N=C3/[C@H]4O[C@]45[C@@]4(C)[C@H](CC[C@@]5(C)[C@@H]3c3ccoc3)[C@@]3(C)C=CC(=O)C(C)(C)[C@@H]3C[C@H]4OC(C)=O)nn2)cc1`, for which the half-inhibitory concentration (IC50) in experiment [1] is 6.7 µM; in experiment [2], greater than 100 µM; in experiment [3], greater than 100 µM; in experiment [4], greater than 100 µM; in experiment [5], greater than 100 µM.
For the compound `CC(=O)O[C@@H]1C[C@H]2C(C)(C)C(=O)C=C[C@]2(C)[C@H]2CC[C@@]3(C)[C@H](c4ccoc4)/C(=N\OCc4cn(-c5cc(Cl)c(Cl)cc5Cl)nn4)[C@H]4O[C@]43[C@@]21C`, the IC50 was 2.3 µM in experiment [1]; greater than 100 µM in experiment [2]; greater than 100 µM in experiment [3]; greater than 100 µM in experiment [4]; greater than 100 µM in experiment [5].
Consider `C=CCCC(=O)O/N=C1/[C@H]2O[C@]23[C@@]2(C)[C@H](CC[C@@]3(C)[C@@H]1c1ccoc1)[C@@]1(C)C=CC(=O)C(C)(C)[C@@H]1C[C@H]2OC(C)=O`, for which the IC50 in experiment [1] was 5.8 µM; in experiment [2], greater than 100 µM; in experiment [3], greater than 100 µM; in experiment [4], 55.8 µM; in experiment [5], greater than 100 µM.
On to `CC1(C)C(=O)C2OC2[C@]2(C)[C@H]3CC[C@@]4(C)[C@H](c5ccoc5)C(=O)[C@H]5O[C@]54[C@]3(C)C(=O)C[C@@H]12` (some centres undefined), for which the IC50 in experiment [1] was 131 µM; in experiment [2], greater than 100 µM; in experiment [3] it was greater than 100 µM; in experiment [4], greater than 100 µM; in experiment [5], greater than 100 µM.
Take `CC1(C)C(=O)C=C[C@]2(C)[C@H]3CC[C@@]4(C)[C@H](c5ccoc5)/C(=N\O)[C@H]5O[C@]54[C@]3(C)[C@H](O)C[C@@H]12`: the IC50 was 20 µM in experiment [1]; greater than 100 µM in experiment [2]; greater than 100 µM in experiment [3]; greater than 100 µM in experiment [4]; greater than 100 µM in experiment [5].
Regarding `COc1ccc(OC)c(/C=C/C(=O)O[C@@H]2C[C@H]3C(C)(C)C(=O)C=C[C@]3(C)[C@H]3CC[C@@]4(C)[C@H](c5ccoc5)C(=O)[C@H]5O[C@]54[C@@]32C)c1`, the IC50 in experiment [1] was 8.8 µM; in experiment [2], greater than 100 µM; in experiment [3] it was greater than 100 µM; in experiment [4], greater than 100 µM; in experiment [5], greater than 100 µM.
Turning to `CCC(=O)O[C@@H]1C[C@H]2C(C)(C)C(=O)C=C[C@]2(C)[C@H]2CC[C@@]3(C)[C@H](c4ccoc4)C(=O)[C@H]4O[C@]43[C@@]21C`, in experiment [1], the IC50 amounted to 7.1 µM.
With `CC(=O)O[C@@H]1C[C@H]2C(C)(C)C(=O)C=C[C@]2(C)[C@H]2CC[C@@]3(C)[C@H](c4ccoc4)/C(=N\OCc4cn(-c5ccc(Cl)cc5)nn4)[C@H]4O[C@]43[C@@]21C`, the IC50 in experiment [1] is 2.9 µM; in experiment [2], greater than 100 µM; in experiment [3], greater than 100 µM; in experiment [4] it was 21.3 µM; in experiment [5], greater than 100 µM.
In the case of `CC(=O)O[C@@H]1C[C@H]2C(C)(C)C(=O)C=C[C@]2(C)[C@H]2CC[C@@]3(C)[C@H](c4ccoc4)/C(=N\OCc4cn(-c5ccccc5C#N)nn4)[C@H]4O[C@]43[C@@]21C`, the IC50 in experiment [1] was 1.7 µM; in experiment [2], greater than 100 µM; in experiment [3], greater than 100 µM; in experiment [4], greater than 100 µM; in experiment [5], greater than 100 µM.
For the compound `CC(=O)O[C@@H]1C[C@H]2C(C)(C)C(O)CC[C@]2(C)[C@H]2CC[C@@]3(C)[C@H](c4ccoc4)C(O)[C@H]4O[C@]43[C@@]21C` (some centres undefined), the IC50 was 21.4 µM in experiment [1]; greater than 100 µM in experiment [2]; greater than 100 µM in experiment [3]; 15.9 µM in experiment [4]; greater than 100 µM in experiment [5].
As to `COc1cccc2c1C(=O)c1c(O)c3c(c(O)c1C2=O)C[C@@](O)(C(=O)CO)C[C@@H]3O[C@H]1C[C@H](N)[C@H](O)[C@H](C)O1` [DOXORUBICIN], the IC50 worked out at 1.9 µM in experiment [2], 3.2 µM in experiment [3], 1.8 µM in experiment [4] and 3.2 µM in experiment [5].
As for `CCCC(=O)O/N=C1/[C@H]2O[C@]23[C@@]2(C)[C@H](CC[C@@]3(C)[C@@H]1c1ccoc1)[C@@]1(C)C=CC(=O)C(C)(C)[C@@H]1C[C@H]2OC(C)=O`, the IC50 in experiment [1] was 9.3 µM; in experiment [2], greater than 100 µM; in experiment [3], greater than 100 µM; in experiment [4] it was greater than 100 µM; in experiment [5], greater than 100 µM.
Take `CC(=O)O[C@@H]1C[C@H]2C(C)(C)C(=O)C=C[C@]2(C)[C@H]2CC[C@@]3(C)[C@H](c4ccoc4)/C(=N\OC(=O)c4cc(Br)ccc4[N+](=O)[O-])[C@H]4O[C@]43[C@@]21C`: the IC50 in experiment [1] was 4.1 µM; in experiment [2], greater than 100 µM; in experiment [3], greater than 100 µM; in experiment [4], greater than 100 µM; in experiment [5], greater than 100 µM.
`CC(=O)O[C@@H]1C[C@H]2C(C)(C)/C(=N/O)C=C[C@]2(C)[C@H]2CC[C@@]3(C)[C@H](c4ccoc4)/C(=N\O)[C@H]4O[C@]43[C@@]21C`: the IC50 is 31.4 µM in experiment [1]; greater than 100 µM in experiment [2]; greater than 100 µM in experiment [3]; 29.1 µM in experiment [4]; greater than 100 µM in experiment [5].
For `CC(=O)O[C@@H]1C[C@H]2C(C)(C)C(=O)CC[C@]2(C)[C@H]2CC[C@@]3(C)[C@H](c4ccoc4)C(=O)[C@H]4O[C@]43[C@@]21C`, the IC50 in experiment [1] was 7.5 µM; in experiment [2], greater than 100 µM; in experiment [3] it was greater than 100 µM; in experiment [4] it was 20.2 µM; in experiment [5], greater than 100 µM.
As for `CCC(=O)O/N=C1/[C@H]2O[C@]23[C@@]2(C)[C@H](CC[C@@]3(C)[C@@H]1c1ccoc1)[C@@]1(C)C=CC(=O)C(C)(C)[C@@H]1C[C@H]2OC(C)=O`, the IC50 in experiment [1] was 9.3 µM; in experiment [2], greater than 100 µM; in experiment [3] it was greater than 100 µM; in experiment [4], greater than 100 µM; in experiment [5], greater than 100 µM.
As for `CC(=O)O/N=C1/[C@H]2O[C@]23[C@@]2(C)[C@H](CC[C@@]3(C)[C@@H]1c1ccoc1)[C@@]1(C)C=CC(=O)C(C)(C)[C@@H]1C[C@H]2OC(C)=O`, the half-maximal inhibitory concentration (IC50) in experiment [1] is 9.3 µM; in experiment [2] it was greater than 100 µM; in experiment [3], greater than 100 µM; in experiment [4], greater than 100 µM; in experiment [5], greater than 100 µM.
With `CC(=O)O[C@@H]1C[C@H]2C(C)(C)C(=O)C=C[C@]2(C)[C@H]2CC[C@@]3(C)[C@H](c4ccoc4)/C(=N\OC(=O)c4ccccc4Br)[C@H]4O[C@]43[C@@]21C`, the IC50 was 12.2 µM in experiment [1]; greater than 100 µM in experiment [2]; greater than 100 µM in experiment [3]; greater than 100 µM in experiment [4]; greater than 100 µM in experiment [5].
On to `CC(=O)O[C@@H]1C[C@H]2C(C)(C)C(=O)C=C[C@]2(C)[C@H]2CC[C@@]3(C)[C@H](c4ccoc4)C(O)[C@H]4O[C@]43[C@@]21C` (some centres undefined), for which the IC50 in experiment [1] is 13.1 µM; in experiment [2], greater than 100 µM; in experiment [3], greater than 100 µM; in experiment [4], 47.8 µM; in experiment [5], greater than 100 µM.
As for `CC(=O)O[C@@H]1C[C@H]2C(C)(C)C(=O)C=C[C@]2(C)[C@H]2CC[C@@]3(C)[C@H](c4ccoc4)/C(=N\OC(=O)c4ccc(Br)cc4)[C@H]4O[C@]43[C@@]21C`, the IC50 in experiment [1] was 9.4 µM; in experiment [2], greater than 100 µM; in experiment [3] it was greater than 100 µM; in experiment [4], greater than 100 µM; in experiment [5] it was greater than 100 µM.
`CC(=O)O[C@@H]1C[C@H]2C(C)(C)C(=O)CC[C@]2(C)[C@H]2CC[C@@]3(C)[C@H](C4CCOC4)C(=O)[C@H]4O[C@]43[C@@]21C` (some centres undefined): the IC50 in experiment [1] is 78.7 µM; in experiment [2], greater than 100 µM; in experiment [3], greater than 100 µM; in experiment [4], greater than 100 µM; in experiment [5], greater than 100 µM.
In the case of `CC(=O)O[C@@H]1C[C@H]2C(C)(C)C(=O)C(O)C(O)[C@]2(C)[C@H]2CC[C@@]3(C)[C@H](c4ccoc4)C(=O)[C@H]4O[C@]43[C@@]21C` (some centres undefined), the IC50 in experiment [1] is 52.5 µM; in experiment [2], greater than 100 µM; in experiment [3], greater than 100 µM; in experiment [4] it was 29.9 µM; in experiment [5], greater than 100 µM.
In the case of `CC(=O)O[C@@H]1C[C@H]2C(C)(C)C(=O)C3OC3[C@]2(C)[C@H]2CC[C@@]3(C)[C@H](c4ccoc4)C(=O)[C@H]4O[C@]43[C@@]21C` (some centres undefined), the IC50 in experiment [1] was 15.5 µM; in experiment [2], greater than 100 µM; in experiment [3], greater than 100 µM; in experiment [4] it was 23.2 µM; in experiment [5], greater than 100 µM.

For the origin of these results see ChEMBL document CHEMBL4020729, “Synthesis and evaluation of anti-plasmodial and cytotoxic activities of epoxyazadiradione derivatives” (Eur J Med Chem, 2017).
